# Values quoted from earlier work, collected in patent US7488493B2, “Performance aid for pesticide or repellent compositions” (Arkion Life Sciences, LLC, priority 2003, dated 2009).
# Tested on: birds
compound,measurement,setting,value
"O=C1c2ccccc2C(=O)c2ccccc21 [9,10-anthraquinone]",Lower limit of detection in birds (threshold where birds begin to sense the repellency),in vivo,125 ppm
same,Content in seed at which birds will not feed,treated seed,0.1 % by weight
